Measured values taken from patent publication US9562036B2, “Fluoromethyl-substituted pyrrole carboxamides as CaV2.2 calcium channel blockers” (GRÜNENTHAL GMBH, priority 2013, dated 2017).

target: T1, Human CaV2.2 channels (Homo sapiens, UniProt Q00975); assay: Fluorescent assay for CaV2.2 channels using potassium depolarization to induce channel opening (FLIPR, Fluo 4); format: cell-based; conditions: 3 μM test compound; 30 mM KCl alternative assay buffer (inactivated channel state); HEK293 cells; read-out: %-Inhib (CaV2.2) @3 μM @30 mM KCl
T1 construct: expressed in transfected cells; also stably expressing Kir2.3)
Excerpt: In the process, the Ca^2+ influx is quantified in the FLIPR assay with the aid of a Ca^2+-sensitive dye (type Fluo-4, Molecular Probes Europe BV, Leiden, the Netherlands) in a fluorescent imaging plate reader (FLIPR 3, Molecular Devices, Sunnyvale, USA), as described hereinafter.
2. Assay Descriptions and Biological Data: 2.1 Fluorescent Assay for CaV2.2 Channels Using Potassium Depolarization to Induce Channel Opening
Human CaV2.2 channels were stably expressed in HEK293 cells together with alpha2-delta and beta subunits of voltage gated calcium channels. In addition, an inwardly rectifying potassium channel (Kir2.3) was stably expressed in these cells to augment control of the cell membrane potential by the concentration of extracellular potassium ions. Raise of the extracellular potassium concentration leads to depolarization of the membrane potential and thus regulates the voltage dependent state of CaV2.2 channels. For preparation, cells were seeded in black poly-D-lysine coated 96-well plates (Becton Dickinson, Biocoat 4640) in 100 μL medium [500 mL DMEM/F-12 plus Glutamax (Invitrogen 31331-093) plus 5.5 mL MEM NEAA 100× (Invitrogen 11140-035) plus 50 mL FBS decomplemented (Invitrogen 10270-106) plus 200 μg/mL Geneticin (Invitrogen 10131-027) plus 50 μg/mL Hygromycin B (Invitrogen 10687-010) plus 2 μg/mL Blasticidin (anti-bl5b Invivo-Gen) plus 0.2 μg/mL Puromycin (A 11138-03)] at a cell density of 30.000 cells per well. Plates were incubated at 37° C. (5% CO2) for 20 to 23 h. On the day of experiment medium was discarded and cells were loaded with Fluo 4 by addition of 100 μL of basic assay buffer (10 mM HEPES, 1 mM KCl, 149 mM NaCl, 0.8 mM CaC2, 1.7 mM MgCl2, 10 mM Glucose, 0.1% BSA. pH 7.4) containing 2 μM Fluo 4 (Molecular Probes; F-14201), 0.01% pluronic acid (Molecular Probes; P-6866) and 2.5 mM probenecid (Molecular Probes; P36400). Cells were incubated in the dark at 25° C. for 60 min. Then dye containing buffer was discarded and 100 μL basic (1 mM KCl) or alternative (30 mM KCl) assay buffer was added. The alternative assay buffer contained altered concentrations of KCl (30 mM) and NaCl (120 mM) and was used in order to promote the inactivated channel state. After that 25 μL of basic or alternative assay buffer with or without test compound were added and cells were incubated again in the dark at 25° C. for 15 min. Fluorescence intensity was measured on a FLIPR 3 instrument (Molecular Devices Corp., Sunnyvale, Calif.) with excitation at 480 nm and emission at 535 nm. After continuously reading fluorescence for 30 sec, 50 μL of basic assay buffer containing 210 mM KCl (NaCl omitted) were added for depolarization. Peak fluorescent signal intensity was determined and the amplitude of the peak signal, normalized to base line, was used to measure channel inhibition by test compounds.

T1 sequence (Q00975 whole entry): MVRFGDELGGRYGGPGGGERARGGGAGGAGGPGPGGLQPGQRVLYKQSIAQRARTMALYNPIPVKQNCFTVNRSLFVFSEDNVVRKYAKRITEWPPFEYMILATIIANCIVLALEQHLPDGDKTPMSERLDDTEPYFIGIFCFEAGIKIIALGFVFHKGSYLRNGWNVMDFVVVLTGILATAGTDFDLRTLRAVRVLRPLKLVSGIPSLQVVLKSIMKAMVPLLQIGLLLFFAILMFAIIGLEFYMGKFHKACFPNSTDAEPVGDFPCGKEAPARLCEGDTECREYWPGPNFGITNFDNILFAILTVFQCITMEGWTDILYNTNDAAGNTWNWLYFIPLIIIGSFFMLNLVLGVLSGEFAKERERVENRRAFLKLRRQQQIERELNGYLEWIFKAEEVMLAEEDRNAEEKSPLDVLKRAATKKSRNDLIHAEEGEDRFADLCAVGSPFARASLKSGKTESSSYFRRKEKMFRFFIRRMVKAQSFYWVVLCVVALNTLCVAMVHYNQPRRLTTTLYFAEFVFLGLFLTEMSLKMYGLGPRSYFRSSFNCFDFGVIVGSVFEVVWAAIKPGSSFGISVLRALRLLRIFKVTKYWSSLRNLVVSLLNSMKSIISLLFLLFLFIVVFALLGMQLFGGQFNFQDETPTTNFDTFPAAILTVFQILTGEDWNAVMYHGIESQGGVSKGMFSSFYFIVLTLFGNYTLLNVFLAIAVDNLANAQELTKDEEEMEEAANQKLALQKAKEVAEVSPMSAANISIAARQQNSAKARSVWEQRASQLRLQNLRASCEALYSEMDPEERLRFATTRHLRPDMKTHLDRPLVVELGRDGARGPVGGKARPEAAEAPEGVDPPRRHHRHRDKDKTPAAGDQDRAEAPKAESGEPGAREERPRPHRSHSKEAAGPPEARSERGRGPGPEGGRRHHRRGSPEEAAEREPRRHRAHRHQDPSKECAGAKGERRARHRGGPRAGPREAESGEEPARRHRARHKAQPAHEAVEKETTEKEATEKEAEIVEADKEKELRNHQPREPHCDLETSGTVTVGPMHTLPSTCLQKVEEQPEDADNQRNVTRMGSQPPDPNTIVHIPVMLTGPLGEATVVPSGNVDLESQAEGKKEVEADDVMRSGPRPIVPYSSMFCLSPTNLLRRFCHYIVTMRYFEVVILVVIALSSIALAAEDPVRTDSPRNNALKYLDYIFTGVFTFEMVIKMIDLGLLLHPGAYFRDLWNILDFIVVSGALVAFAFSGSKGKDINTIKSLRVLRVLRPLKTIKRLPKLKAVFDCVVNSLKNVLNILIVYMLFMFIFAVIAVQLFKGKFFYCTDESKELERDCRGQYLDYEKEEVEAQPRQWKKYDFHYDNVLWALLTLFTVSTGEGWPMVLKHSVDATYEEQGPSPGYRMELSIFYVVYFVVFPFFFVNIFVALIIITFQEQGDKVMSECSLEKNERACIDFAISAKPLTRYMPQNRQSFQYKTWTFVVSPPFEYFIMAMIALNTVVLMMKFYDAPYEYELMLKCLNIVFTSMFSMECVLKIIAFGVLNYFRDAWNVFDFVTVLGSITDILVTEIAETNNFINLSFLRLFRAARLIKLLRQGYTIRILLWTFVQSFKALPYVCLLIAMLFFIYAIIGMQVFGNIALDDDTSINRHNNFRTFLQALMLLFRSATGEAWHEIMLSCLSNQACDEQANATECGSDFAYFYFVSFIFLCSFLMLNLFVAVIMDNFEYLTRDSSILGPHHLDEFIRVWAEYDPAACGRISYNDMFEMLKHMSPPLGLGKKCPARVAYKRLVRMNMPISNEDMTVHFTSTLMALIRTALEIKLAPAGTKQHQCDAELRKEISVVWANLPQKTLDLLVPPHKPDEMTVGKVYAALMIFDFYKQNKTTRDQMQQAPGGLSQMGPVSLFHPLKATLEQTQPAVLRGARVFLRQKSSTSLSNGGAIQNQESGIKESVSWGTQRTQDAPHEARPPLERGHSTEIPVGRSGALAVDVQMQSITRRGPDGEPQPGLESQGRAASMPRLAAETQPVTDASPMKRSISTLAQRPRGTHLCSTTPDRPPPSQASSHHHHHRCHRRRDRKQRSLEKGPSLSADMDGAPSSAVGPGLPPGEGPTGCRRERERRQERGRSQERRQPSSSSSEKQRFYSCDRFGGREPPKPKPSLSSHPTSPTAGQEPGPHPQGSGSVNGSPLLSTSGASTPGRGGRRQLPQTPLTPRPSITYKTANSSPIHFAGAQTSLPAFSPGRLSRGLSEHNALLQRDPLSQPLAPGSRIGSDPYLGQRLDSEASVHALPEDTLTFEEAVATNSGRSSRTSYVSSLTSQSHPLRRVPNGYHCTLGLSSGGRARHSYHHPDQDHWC

Compound	inhibition at 3 µM [%]
Cc1c(-c2ncc(Cl)cn2)c(C(=O)N2CCOCC2)n(Cc2ccccc2)c1C(F)(F)F [Example 25, [1-Benzyl-3-(5-chloro-pyrimidin-2-yl)-4-methyl-5-(trifluoromethyl)-1H-pyrrol-2-yl]-morpholin-4-yl-methanone]	> 95
Cc1cc(C#N)ncc1-c1c(C)c(C(F)(F)F)n(Cc2ccccc2)c1C(=O)N1CCOCC1 [Example 26, 5-[1-Benzyl-4-methyl-2-(morpholine-4-carbonyl)-5-(trifluoromethyl)-1H-pyrrol-3-yl]-4-methyl-pyridine-2-carbonitrile]	75 to 95
Cc1cc(Cl)ncc1-c1c(C)c(C(F)(F)F)n(Cc2ccccc2)c1C(=O)N1CCOCC1 [Example 27, [1-Benzyl-3-(6-chloro-4-methyl-pyridin-3-yl)-4-methyl-5-(trifluoromethyl)-1H-pyrrol-2-yl]-morpholin-4-yl-methanone]	75 to 95
COc1cc(C)c(-c2c(C)c(C(F)(F)F)n(Cc3ccccc3)c2C(=O)N2CCOCC2)cn1 [Example 28, [1-Benzyl-3-(6-methoxy-4-methyl-pyridin-3-yl)-4-methyl-5-(trifluoromethyl)-1H-pyrrol-2-yl]-morpholin-4-yl-methanone]	75 to 95
Cc1c(-c2ccc(Cl)nn2)c(C(=O)N2CCOCC2)n(Cc2ccccc2)c1C(F)(F)F [Example 29, [1-Benzyl-3-(6-chloro-pyridazin-3-yl)-4-methyl-5-(trifluoromethyl)-1H-pyrrol-2-yl]-morpholin-4-yl-methanone]	40 to 75
COc1cnc(-c2c(C)c(C(F)(F)F)n(Cc3ccccc3)c2C(=O)N(C)CC(C)(C)C)nc1 [Example 30, 1-Benzyl-3-(5-methoxypyrimidin-2-yl)-N,4-dimethyl-N-neopentyl-5-(trifluoromethyl)-1H-pyrrole-2-carboxamide]	75 to 95
Cc1c(-c2ccc(F)cn2)c(C(=O)N(C)CC(C)(C)C)n(Cc2ccccc2)c1C(F)(F)F [Example 31, 1-Benzyl-3-(5-fluoropyridin-2-yl)-N,4-dimethyl-N-neopentyl-5-(trifluoromethyl)-1H-pyrrole-2-carboxamide]	> 95
Cc1c(-c2ccnnc2)c(C(=O)N(C)CC(C)(C)C)n(Cc2ccccc2)c1C(F)(F)F [Example 32, 1-Benzyl-N,4-dimethyl-N-neopentyl-3-(pyridazin-4-yl)-5-(trifluoromethyl)-1H-pyrrole-2-carboxamide]	75 to 95
Cc1c(-c2ncc(F)cn2)c(C(=O)N(C)CC(C)(C)C)n(Cc2ccccc2)c1C(F)(F)F [Example 33, 1-Benzyl-3-(5-fluoropyrimidin-2-yl)-N,4-dimethyl-N-neopentyl-5-(trifluoromethyl)-1H-pyrrole-2-carboxamide]	> 95
Cc1c(-c2cnccn2)c(C(=O)N(C)CC(C)(C)C)n(Cc2ccccc2)c1C(F)(F)F [Example 34, 1-Benzyl-N,4-dimethyl-N-neopentyl-3-(pyrazin-2-yl)-5-(trifluoromethyl)-1H-pyrrole-2-carboxamide]	75 to 95
Cc1c(-c2ncccn2)c(C(=O)N(C)CC(C)(C)C)n(Cc2ccccc2)c1C(F)(F)F [Example 35, 1-Benzyl-N,4-dimethyl-N-neopentyl-3-(pyrimidin-2-yl)-5-(trifluoromethyl)-1H-pyrrole-2-carboxamide]	75 to 95
Cc1c(-c2ccc(F)cn2)c(C(=O)N2CCOCC2)n(Cc2ccccc2)c1C(F)(F)F [Example 36, (1-Benzyl-3-(5-fluoropyridin-2-yl)-4-methyl-5-(trifluoromethyl)-1H-pyrrol-2-yl)(morpholino)methanone]	75 to 95
Cc1c(-c2ccnnc2)c(C(=O)N2CCOCC2)n(Cc2ccccc2)c1C(F)(F)F [Example 37, (1-Benzyl-4-methyl-3-(pyridazin-4-yl)-5-(trifluoromethyl)-1H-pyrrol-2-yl)(morpholino)methanone]	40 to 75
Cc1c(-c2ncc(F)cn2)c(C(=O)N2CCOCC2)n(Cc2ccccc2)c1C(F)(F)F [Example 38, (1-Benzyl-3-(5-fluoropyrimidin-2-yl)-4-methyl-5-(trifluoromethyl)-1H-pyrrol-2-yl)(morpholino)methanone]	40 to 75
Cc1c(-c2cnccn2)c(C(=O)N2CCOCC2)n(Cc2ccccc2)c1C(F)(F)F [Example 39, (1-Benzyl-4-methyl-3-(pyrazin-2-yl)-5-(trifluoromethyl)-1H-pyrrol-2-yl)(morpholino)methanone]	40 to 75
Cc1c(-c2ncccn2)c(C(=O)N2CCOCC2)n(Cc2ccccc2)c1C(F)(F)F [Example 40, (1-Benzyl-4-methyl-3-(pyrimidin-2-yl)-5-(trifluoromethyl)-1H-pyrrol-2-yl)(morpholino)methanone]	40 to 75
Cc1c(-c2ccc(Cl)cn2)c(C(=O)N(C)CC(C)(C)C)n(Cc2ccccc2)c1C(F)(F)F [Example 41, 1-Benzyl-3-(5-chloro-pyridin-2-yl)-N-(2,2-dimethyl-propyl)-N,4-dimethyl-5-(trifluoromethyl)-1H-pyrrole-2-carboxylic acid amide]	> 95
Cc1c(-c2ccc(Cl)cn2)c(C(=O)N2CCOCC2)n(Cc2ccccc2)c1C(F)(F)F [Example 42, [1-Benzyl-3-(5-chloro-pyridin-2-yl)-4-methyl-5-(trifluoromethyl)-1H-pyrrol-2-yl]-morpholin-4-yl-methanone]	> 95
Cc1c(-c2ccc(Cl)cn2)c(C(=O)N(C)CCS(C)(=O)=O)n(Cc2ccccc2)c1C(F)(F)F [Example 43, 1-Benzyl-3-(5-chloro-pyridin-2-yl)-N,4-dimethyl-N-(2-methylsulfonyl-ethyl)-5-(trifluoromethyl)-1H-pyrrole-2-carboxylic acid amide]	> 95
Cc1c(-c2ncc(Cl)cn2)c(C(=O)N2CCS(=O)(=O)CC2)n(Cc2ccccc2)c1C(F)(F)F [Example 44, [1-Benzyl-3-(5-chloro-pyrimidin-2-yl)-4-methyl-5-(trifluoromethyl)-1H-pyrrol-2-yl]-(1,1-dioxo-[1,4]thiazinan-4-yl)-methanone]	75 to 95
Cc1c(-c2ncc(Cl)cn2)c(C(=O)N2CCOC(C)(C)C2)n(Cc2ccccc2)c1C(F)(F)F [Example 45, [1-Benzyl-3-(5-chloro-pyrimidin-2-yl)-4-methyl-5-(trifluoromethyl)-1H-pyrrol-2-yl]-(2,2-dimethyl-morpholin-4-yl)-methanone]	> 95
Cc1c(-c2ncc(Cl)cn2)c(C(=O)NC2CC2)n(Cc2ccccc2)c1C(F)(F)F [Example 46, 1-Benzyl-3-(5-chloro-pyrimidin-2-yl)-N-cyclopropyl-4-methyl-5-(trifluoromethyl)-1H-pyrrole-2-carboxylic acid amide]	40 to 75
Cc1c(-c2ncc(Cl)cn2)c(C(=O)N2CCNC(=O)C2)n(Cc2ccccc2)c1C(F)(F)F [Example 47, 4-[1-Benzyl-3-(5-chloro-pyrimidin-2-yl)-4-methyl-5-(trifluoromethyl)-1H-pyrrole-2-carbonyl]-piperazin-2-one]	40 to 75
Cc1c(-c2ncc(Cl)cn2)c(C(=O)N(C)CC(C)(C)C(N)=O)n(Cc2ccccc2)c1C(F)(F)F [Example 48, 1-Benzyl-N-(2-carbamoyl-2-methyl-propyl)-3-(5-chloro-pyrimidin-2-yl)-N,4-dimethyl-5-(trifluoromethyl)-1H-pyrrole-2-carboxylic acid amide]	> 95
Cc1c(-c2ncc(Cl)cn2)c(C(=O)N(C)CC(C)(C)C#N)n(Cc2ccccc2)c1C(F)(F)F [Example 49, 1-Benzyl-3-(5-chloro-pyrimidin-2-yl)-N-(2-cyano-2-methyl-propyl)-N,4-dimethyl-5-(trifluoromethyl)-1H-pyrrole-2-carboxylic acid amide]	> 95
Cc1c(-c2ccc(Cl)cn2)c(C(=O)N(C)C(C)C)n(Cc2ccccc2)c1C(F)(F)F [Example 50, 1-Benzyl-3-(5-chloro-pyridin-2-yl)-N-isopropyl-N,4-dimethyl-5-(trifluoromethyl)-1H-pyrrole-2-carboxylic acid amide]	> 95
